≈ marks a conversion by molar mass, not a printed value. Like-named read-outs stand apart in the source and are kept apart here.
How the values were obtained:
[1] = tested on: P. aeruginosa K2415 (mexXY-oprM overexpressed); experiment: MIC / potentiation assay, strain K2415; assay type: cell-based, Pseudomonas aeruginosa
Source text: (§1) P. aeruginosa ATCC 27853 was obtained from the American Type Culture Collection (ATCC; Manassas, VA, USA). P. aeruginosa multidrug-resistant isolates were obtained from the CDC and FDA Antibiotic Resistance Isolate Bank (Atlanta, GA, USA). P. aeruginosa DA7232 (gyrA-T83I, parC-S80L) was a kind gift from Prof. Dan I. Andersson, Uppsala University, Uppsala, Sweden, and has been characterized elsewhere. P. aeruginosa strains K767 (WT), K1455 (mexAB-oprM overexpressed), K2415 (mexXY-oprM overexpressed), and K3698 (oprM∆) were obtained from Prof. Keith Poole, Queen’s University, Kingston, Ontario, Canada and have been characterized elsewhere. Bacterial cells were grown in cation-adjusted Mueller Hinton (CAMH) media, brain heart infusion broth (BHI), or tryptic soy agar (TSA) plates were all obtained from Becton, Dickinson, and Company (BD; Franklin Lakes, NJ, USA). Aztreonam, ceftazidime, moxifloxacin, levofloxacin, minocycline, tigecycline, chloramphenicol, nitrocefin, and imipenem were purchased from TOKU-E (Bellingham, WA, USA). Azithromycin was purchased from Tokyo Chemical Industry (Portland, OR, USA). Cotrimoxazole was purchased from Toronto Research Chemicals (Toronto, ON, Canada). Doxycycline and polymyxin B were purchased from Sigma-Aldrich (St. Louis, MO, USA). Ethidium bromide (EtBr) and glucose were purchased from VWR (Radnor, PA, USA). MC-04,124 and TXA01182 were synthesized at TAXIS Pharmaceuticals. Carbonyl cyanide 3-chlorophenylhydrazone (CCCP) was purchased from Enzo Life Sciences (Farmingdale, NY, USA). DiOC2 (3) and propidium iodide were obtained from Thermo Fisher Scientific (Waltham, MA, USA).
(§2) MIC assays were performed as described previously.

P. aeruginosa ATCC 27853 = experiment: MIC / antibiotic potentiation assay, wild-type strain; settings: for Antibiotic MIC in Presence of TXA09155 at a Concentration of 3.13: TXA09155 3.13 μg/mL; for Antibiotic MIC in Presence of TXA09155 at a Concentration of 25: TXA09155 25 μg/mL; for Emax: ratio between MIC without EPI and MIC in the presence of a maximal potentiating concentration of EPI (TXA09155)
[2] = tested on: P. aeruginosa K3698 (∆oprM); experiment: MIC / potentiation assay, strain K3698; assay type: cell-based, Pseudomonas aeruginosa
Source text: as §1, with “Aztreonam, ceftazidime, moxifloxacin, levofloxacin, minocycline, tigecycline, chloramphenicol, nitrocefin, and imipenem were purchased from TOKU-E (Bellingham, WA, USA).” left out, “Cotrimoxazole was purchased from Toronto Research Chemicals (Toronto, ON, Canada). Doxycycline and polymyxin B were purchased from Sigma-Aldrich (St. Louis, MO, USA).” left out
as §2

[3] = tested on: P. aeruginosa K1455 (mexAB-oprM overexpressed); experiment: microbe, parasite or virus in culture; assay type: cell-based, Pseudomonas aeruginosa
Source text: as §1, §2

P. aeruginosa K767 (WT) = experiment: MIC assay, strain K767; assay type: cell-based, Pseudomonas aeruginosa; settings: antibiotic alone
Source text: as §1, §2

[4] = tested on: P. aeruginosa mutants EPIR1S, EPIR9S, EPIR20L, EPIR43; experiment: MIC of antimicrobials in TXA09155-resistant mutants; assay type: cell-based, Pseudomonas aeruginosa; settings: Pseudomonas aeruginosa
Protocol: All resistant colonies were verified by determining the MIC to TXA09155. […] This two-component system regulates the expression of more than 100 genes in P. aeruginosa, including genes that code for efflux components (mexX), and plays a role in the resistance to cationic antimicrobial peptides and aminoglycoside antibiotics.
as §2

[5] = Pseudomonas aeruginosa, ATCC27853, read-out: Antibiotic MIC in Presence of TXA09155 at a Concentration of 0

| Compound | Antibiotic MIC in Presence of TXA09155 at a Concentration of 3.13 (P. aeruginosa ATCC 27853) [µg/mL] | Antibiotic MIC in Presence of TXA09155 at a Concentration of 25 (P. aeruginosa ATCC 27853) [µg/mL] | Antibiotic MIC in Presence of TXA09155 at a Concentration of 12.5 (P. aeruginosa ATCC 27853) [µg/mL] | Emax (P. aeruginosa ATCC 27853) | MIC ([4]; strain EPIR1S (phoQ-L175R)) [µg/mL] | MIC ([4]; strain EPIR20L (phoQ-H248D)) [µg/mL] | MIC (P. aeruginosa ATCC 27853; [5]) [µg/mL] | other results |
| --- | --- | --- | --- | --- | --- | --- | --- | --- |
| Cotrimoxazole | 256 | 2 | 4 | 128 | – | – | – | MICs K2415 (↑mexXY-oprM) ([1]; antibiotic alone): 64 µg/mL; Antibiotic MIC in Presence of TXA09155 at a Concentration of 0 (P. aeruginosa ATCC 27853; TXA09155 0 μg/mL): 256 µg/mL; MICs K3698 (∆oprM) ([2]; antibiotic alone): 4 µg/mL; MICs K1455 (↑mexAB-oprM) ([3]; antibiotic alone): > 256 µg/mL; MICs K767 (WT) (P. aeruginosa K767 (WT)): 64 µg/mL |
| CN(C)c1cc(NC(=O)CNC(C)(C)C)c(O)c2c1C[C@H]1C[C@H]3[C@H](N(C)C)C(O)=C(C(N)=O)C(=O)[C@@]3(O)C(O)=C1C2=O [TGC, tigecycline] | – | – | – | – | 8 | 8 | – | MIC (P. aeruginosa ATCC 27853; ATCC 27853, parent strain): 8 µg/mL |
| C[C@@H](O)[C@H]1C(=O)N2C(C(=O)O)=C(SCCN=CN)C[C@H]12 [Imipenem] | 2 | 2 | 2 | 1 | – | – | 2 | MIC ([1]; Pseudomonas aeruginosa, read-out: MICs K2415 (↑mexXY-oprM)): 1 µg/mL; MIC Ratios K2415 (↑mexXY-oprM) ± TXA09155 ([1]; TXA09155 […]): 1; antibiotic potentiated by TXA09155 up to x-fold (P. aeruginosa ATCC 27853; TXA09155 25 to 3.13 µg/mL): not potentiated; MIC ([2]; Pseudomonas aeruginosa, read-out: MICs K3698 (∆oprM)): 2 µg/mL; MIC Ratios K3698 (∆oprM) ± TXA09155 ([2]; TXA09155 […]): 1; MIC ([3]; Pseudomonas aeruginosa, read-out: MICs K1455 (↑mexAB-oprM)): 1 µg/mL (≈ 3.34 µM); MIC Ratios K1455 (↑mexAB-oprM) ± TXA09155 ([3]; TXA09155 […]): 1; MIC Ratios K1455 (↑mexAB-oprM)/K3698 (∆oprM) ([3]; antibiotic alone, effect of pump deletion): 1; MIC (P. aeruginosa K767 (WT); Pseudomonas aeruginosa, read-out: MICs K767 (WT)): 2 µg/mL (≈ 6.68 µM) |
| NCC[C@H](O)C(=O)N[C@@H]1C[C@H](N)[C@@H](O[C@H]2O[C@H](CN)[C@@H](O)[C@H](O)[C@H]2O)[C@H](O)[C@H]1O[C@H]1O[C@H](CO)[C@@H](O)[C@H](N)[C@H]1O [AMK, amikacin] | – | – | – | – | 8 | 8 | – | – |
| C[C@@H](O)[C@H]1C(=O)N2C(C(=O)O)=C(S[C@@H]3CN[C@H](C(=O)N(C)C)C3)[C@H](C)[C@H]12 [MEM, meropenem] | – | – | – | – | 2 | 2 | – | MIC ([4]; strain EPIR9S (phoQ-L175R)): 1 µg/mL |
| C[C@H]1[C@H](NC(=O)/C(=N\OC(C)(C)C(=O)O)c2csc(N)n2)C(=O)N1S(=O)(=O)O [Aztreonam] | 4 | 0.25 | – | 32 | – | – | 8 | – |
| COc1c(N2C[C@@H]3CCCN[C@@H]3C2)c(F)cc2c(=O)c(C(=O)O)cn(C3CC3)c12 [Moxifloxacin] | 2 | 0.016 | 0.031 | – | – | – | 2 | MIC (P. aeruginosa ATCC 27853; Pseudomonas aeruginosa, ATCC27853, read-out: MICs, Lack of EPI): 2 µg/mL |

From paper PMC9220351, “Evaluation of a Conformationally Constrained Indole Carboxamide as a Potential Efflux Pump Inhibitor in Pseudomonas aeruginosa” (Antibiotics, 2022)
